From patent US8426202B2, “Cell culture medium” (Cellca GmbH, priority 2005, dated 2013)
“And” between values parts separate entries of the source, which are not always exact repeats. Equal entries are not always repeated.

Legend:
[1] = test system: CHO cell line that expresses an antibody; test: Fed-batch experiment with the substances according to the invention (Example 2, Table 2); assay type: cell-based, Chinese hamster; parameters: Viabil.: concentration or dose not given beside the values
Description: (§1) Feed took place at regular intervals.

[2] = test system: CHO cell line that expresses an antibody; test: Batch experiment with the substances according to the invention (Example 1); assay type: cell-based, Chinese hamster; details: batch mode, substance 0.5-1 g/l, basal medium glucose 4.7 g/l, glutamine […]
Description: Cells were stored in the gas phase of liquid nitrogen. One to two ampoules were thawed in nutrient medium preheated to 37° C. and transferred to spinner bottles, shaking flasks or T-bottles. In the first few days of cultivation the medium was changed, depending on the clone.
Depending on the clone, cells were split either every second day or every third day or after two and three days alternately into new medium, i.e. a portion of the cell suspension was removed from culture and a smaller portion of the cell suspension was reused as inoculum for the next culture. This inoculum was made up with fresh prewarmed nutrient medium. Cells were incubated at 37° C. in an incubator with a CO2 atmosphere. An alternative for incubating cells was cultivation in an incubation chamber at 37° C., in this way cells were held in culture for several passages. A passage means a cultivation time of two to three days. At various points of time, cell suspension was taken from strain maintenance and used as inoculum for experiments. The experiments were carried out in various cultivation systems, for example in spinner bottles, T-bottles, shaking flasks, culture tubes or in controlled bioreactors.
as §1

## NCCC[C@H](N)C(=O)O [Ornithine]
[1]; day 0, fed-batch
  Viabil.: 91%
[1]; day 2, fed-batch
  Viabil.: 98% and 97%
[1]; day 5, fed-batch
  Viabil.: 96%
[1]; day 8, fed-batch
  Viabil.: 94%
[2]; day 0
  Gln: 1.53 mM
  Glucose: 4.69 g/L
  Lactate: 0 g/L
  Specific Glutamin consumption (Gln/VCD): 1.49
  Specific ammonia production (NH4/VCD): 1.18
  Specific glucose consumption (Gluc/VCD): 4.55
  Specific lactate production (Lac/VCD): 0.00
  Viabil.: 96%
[2]; day 3
  Gln: 0.92 mM
  Glucose: 4.24 g/L
  Lactate: 0.71 g/L
  Specific Glutamin consumption (Gln/VCD): 0.15
  Specific ammonia production (NH4/VCD): 0.29
  Specific glucose consumption (Gluc/VCD): 0.67
  Specific lactate production (Lac/VCD): 0.11
  Viabil.: 97%
[2]; day 6
  Gln: 0.11 mM
  Glucose: 2.7 g/L
  Specific Glutamin consumption (Gln/VCD): 0.00
  Specific ammonia production (NH4/VCD): 0.06
  Specific glucose consumption (Gluc/VCD): 0.06
  Specific lactate production (Lac/VCD): 0.02
  Viabil.: 98%
[2]; day 8
  Gln: 0.37 mM
  Specific Glutamin consumption (Gln/VCD): 0.02
  Specific ammonia production (NH4/VCD): 0.14
  Specific glucose consumption (Gluc/VCD): 0.09
  Specific lactate production (Lac/VCD): 0.05
  Viabil.: 89%
[2]; day 11
  Gln: 0.46 mM
  Glucose: 0.53 g/L
  Lactate: 1.26 g/L
  Specific Glutamin consumption (Gln/VCD): 0.03
  Specific ammonia production (NH4/VCD): 0.22
  Specific glucose consumption (Gluc/VCD): 0.04
  Specific lactate production (Lac/VCD): 0.09
  Viabil.: 60%

## NC(=O)NCCC[C@H](N)C(=O)O [Citrulline]
[2]; day 0
  Gln: 1.53 mM
  Glucose: 4.69 g/L
  Lactate: 0 g/L
  NH4: 1.22 mM
  Specific Glutamin consumption (Gln/VCD): 1.49
  Specific ammonia production (NH4/VCD): 1.18
  Specific glucose consumption (Gluc/VCD): 4.55
  Specific lactate production (Lac/VCD): 0.00
  Total Cell Density TCD: 1.07 E5/ml
  Viabil.: 96%
  Viable Cell Density (VCD): 1.03 E5/ml
[2]; day 3
  Gln: 0.82 mM
  Glucose: 4.14 g/L
  Lactate: 0.83 g/L
  NH4: 1.87 mM
  Specific Glutamin consumption (Gln/VCD): 0.11
  Specific ammonia production (NH4/VCD): 0.25
  Specific glucose consumption (Gluc/VCD): 0.55
  Specific lactate production (Lac/VCD): 0.11
  Total Cell Density TCD: 7.7 E5/ml
  Viabil.: 97%
  Viable Cell Density (VCD): 7.5 E5/ml
[2]; day 6
  Gln: 0.27 mM
  Glucose: 2.62 g/L
  Lactate: 1.16 g/L
  NH4: 2.66 mM
  Specific Glutamin consumption (Gln/VCD): 0.01
  Specific ammonia production (NH4/VCD): 0.07
  Specific glucose consumption (Gluc/VCD): 0.07
  Specific lactate production (Lac/VCD): 0.03
  Total Cell Density TCD: 39.6 E5/ml
  Viabil.: 96%
  Viable Cell Density (VCD): 37.9 E5/ml
[2]; day 8
  Gln: 0.37 mM
  Glucose: 1.7 g/L
  Lactate: 1.12 g/L
  NH4: 2.86 mM
  Specific Glutamin consumption (Gln/VCD): 0.03
  Specific ammonia production (NH4/VCD): 0.20
  Specific glucose consumption (Gluc/VCD): 0.12
  Specific lactate production (Lac/VCD): 0.08
  Total Cell Density TCD: 17.8 E5/ml
  Viabil.: 82%
  Viable Cell Density (VCD): 14.6 E5/ml
[2]; day 11
  Gln: 0.51 mM
  Glucose: 0.7 g/L
  Lactate: 1.48 g/L
  NH4: 3.26 mM
  Specific Glutamin consumption (Gln/VCD): 0.06
  Specific ammonia production (NH4/VCD): 0.40
  Specific glucose consumption (Gluc/VCD): 0.09
  Specific lactate production (Lac/VCD): 0.18
  Total Cell Density TCD: 21.3 E5/ml
  Viabil.: 38%
  Viable Cell Density (VCD): 8.2 E5/ml

## CC(=O)C(=O)[O-].[Na+] [Sodium pyruvate]
[1]; day 0, fed-batch
  Total Cell Density TCD: 1.5 E5/ml
  Viabil.: 91%
  Viable Cell Density (VCD): 1.37 E5/ml
[1]; day 2, fed-batch
  Total Cell Density TCD: 3.2 E5/ml
  Viabil.: 97%
  Viable Cell Density (VCD): 3.1 E5/ml
[1]; day 5, fed-batch
  Total Cell Density TCD: 13.7 E5/ml
  Viabil.: 99%
  Viable Cell Density (VCD): 13.5 E5/ml
[1]; day 8, fed-batch
  Total Cell Density TCD: 46 E5/ml
  Viabil.: 90%
  Viable Cell Density (VCD): 41.5 E5/ml
[2]; day 0
  Gln: 1.53 mM
  Glucose: 4.69 g/L
  Lactate: 0 g/L
  NH4: 1.22 mM
  Specific Glutamin consumption (Gln/VCD): 1.49
  Specific ammonia production (NH4/VCD): 1.18
  Specific glucose consumption (Gluc/VCD): 4.55
  Specific lactate production (Lac/VCD): 0.00
  Total Cell Density TCD: 1.07 E5/ml
  Viabil.: 96%
  Viable Cell Density (VCD): 1.03 E5/ml
[2]; day 3
  Gln: 1.02 mM
  Glucose: 4.55 g/L
  Lactate: 0.38 g/L
  NH4: 1.72 mM
  Specific Glutamin consumption (Gln/VCD): 0.13
  Specific ammonia production (NH4/VCD): 0.22
  Specific glucose consumption (Gluc/VCD): 0.59
  Specific lactate production (Lac/VCD): 0.05
  Total Cell Density TCD: 7.8 E5/ml
  Viabil.: 99%
  Viable Cell Density (VCD): 7.7 E5/ml
[2]; day 6
  Gln: 0.25 mM
  Glucose: 2.81 g/L
  Lactate: 1.32 g/L
  NH4: 1.91 mM
  Specific Glutamin consumption (Gln/VCD): 0.01
  Specific ammonia production (NH4/VCD): 0.04
  Specific glucose consumption (Gluc/VCD): 0.06
  Specific lactate production (Lac/VCD): 0.03
  Total Cell Density TCD: 45 E5/ml
  Viabil.: 98%
  Viable Cell Density (VCD): 44 E5/ml
[2]; day 8
  Gln: 0.38 mM
  Glucose: 1.79 g/L
  Lactate: 1.34 g/L
  NH4: 2.23 mM
  Specific Glutamin consumption (Gln/VCD): 0.02
  Specific ammonia production (NH4/VCD): 0.10
  Specific glucose consumption (Gluc/VCD): 0.08
  Specific lactate production (Lac/VCD): 0.06
  Total Cell Density TCD: 24.5 E5/ml
  Viabil.: 88%
  Viable Cell Density (VCD): 21.6 E5/ml
[2]; day 11
  Gln: 0.49 mM
  Glucose: 0.63 g/L
  Lactate: 1.93 g/L
  NH4: 3.06 mM
  Specific Glutamin consumption (Gln/VCD): 0.05
  Specific ammonia production (NH4/VCD): 0.30
  Specific glucose consumption (Gluc/VCD): 0.06
  Specific lactate production (Lac/VCD): 0.19
  Total Cell Density TCD: 24.2 E5/ml
  Viabil.: 43%
  Viable Cell Density (VCD): 10.3 E5/ml

## O=C(O)C(O)C(O)C(=O)O (centres unmarked) [Tartaric acid]
[1]; day 0, fed-batch
  Total Cell Density TCD: 1.5 E5/ml
  Viabil.: 91%
  Viable Cell Density (VCD): 1.37 E5/ml
[1]; day 2, fed-batch
  Total Cell Density TCD: 4 E5/ml and 3.9 E5/ml
  Viabil.: 98% and 97%
  Viable Cell Density (VCD): 3.9 E5/ml and 3.8 E5/ml
[1]; day 5, fed-batch
  Total Cell Density TCD: 10.4 E5/ml and 9.6 E5/ml
  Viabil.: 93% and 95%
  Viable Cell Density (VCD): 9.7 E5/ml and 9.1 E5/ml
[1]; day 8, fed-batch
  Total Cell Density TCD: 26.6 E5/ml and 27.7 E5/ml
  Viabil.: 89% and 90%
  Viable Cell Density (VCD): 23.7 E5/ml and 25 E5/ml
[2]; day 0
  Gln: 1.53 mM
  Glucose: 4.69 g/L
  Lactate: 0 g/L
  NH4: 1.22 mM
  Specific Glutamin consumption (Gln/VCD): 1.49
  Specific ammonia production (NH4/VCD): 1.18
  Specific glucose consumption (Gluc/VCD): 4.55
  Specific lactate production (Lac/VCD): 0.00
  Total Cell Density TCD: 1.07 E5/ml
  Viabil.: 96%
  Viable Cell Density (VCD): 1.03 E5/ml
[2]; day 3
  Gln: 0.9 mM
  Glucose: 4.53 g/L
  Lactate: 0.41 g/L
  NH4: 1.84 mM
  Specific Glutamin consumption (Gln/VCD): 0.17
  Specific ammonia production (NH4/VCD): 0.34
  Specific glucose consumption (Gluc/VCD): 0.84
  Specific lactate production (Lac/VCD): 0.08
  Total Cell Density TCD: 5.5 E5/ml
  Viabil.: 98%
  Viable Cell Density (VCD): 5.4 E5/ml
[2]; day 6
  Gln: 0.19 mM
  Glucose: 3.56 g/L
  Lactate: 0.6 g/L
  NH4: 2.89 mM
  Specific Glutamin consumption (Gln/VCD): 0.00
  Specific ammonia production (NH4/VCD): 0.07
  Specific glucose consumption (Gluc/VCD): 0.09
  Specific lactate production (Lac/VCD): 0.02
  Total Cell Density TCD: 41.3 E5/ml
  Viabil.: 97%
  Viable Cell Density (VCD): 40 E5/ml
[2]; day 8
  Gln: 0.27 mM
  Glucose: 2.65 g/L
  Lactate: 0.64 g/L
  NH4: 3.42 mM
  Specific Glutamin consumption (Gln/VCD): 0.03
  Specific ammonia production (NH4/VCD): 0.33
  Specific glucose consumption (Gluc/VCD): 0.25
  Specific lactate production (Lac/VCD): 0.06
  Total Cell Density TCD: 12.1 E5/ml
  Viabil.: 87%
  Viable Cell Density (VCD): 10.5 E5/ml
[2]; day 11
  Gln: 0.42 mM
  Glucose: 1.71 g/L
  Lactate: 0.79 g/L
  NH4: 3.87 mM
  Specific Glutamin consumption (Gln/VCD): 0.05
  Specific ammonia production (NH4/VCD): 0.44
  Specific glucose consumption (Gluc/VCD): 0.20
  Specific lactate production (Lac/VCD): 0.09
  Total Cell Density TCD: 18 E5/ml
  Viabil.: 48%
  Viable Cell Density (VCD): 8.7 E5/ml
